Where “and” joins values, the source holds several entries; their conditions need not be identical. Identical values can stand only once.
Columns and labels:
[1] = system: blood derived macrophages (CD16 on CD14 cells); conditions: +30 µM, +100 µM, +300 µM, three days, 5 donors, FIG. 2
Description: Cells were then processed for flow cytometry (5 separate donors) and CD14 cell co-expression of CD16 (macrophage activation marker) was scored.
Percentage of control median CD16 was calculated for all 5 donors +/- SD.

[2] = system: COVID19 blood monocytes
[3] = system: ALS blood monocytes; conditions: 300uM, 3 days, FIG. 4
Description: Culture supernatants were harvested and cytokine levels were determined by ELISA. […] Referring to the Y-axis, percentage of reduction is the level of factor in treated as compared to untreated macrophages. N is 8-18 in several experiments.

[4] = system: ALS blood monocytes; conditions: 3 days
Description: Culture supernatants are harvested and osteopontin levels (OPN) are determined by ELISA.
Repeated with 3 normal and 5 ALS donors.

[5] = system: Normal blood macrophages; conditions: 150uM, three days, three donors
[6] = system: Blood derived macrophages from ALS patients; conditions: 300uM overnight, two ALS patients, FIG. 3
Excerpt: The maj or focus was on regulation of inflammation as compared to normal macrophage functional genes. […] Note that by “housekeeping genes” is meant B2M, HPRT1, RPL13A, GAPDH, and ACTB.

## sodium chlorite [sodium chlorite formulation]
[1]
  CD16 expression on CD14+ (monocyte lineage) cells: dose dependent down regulation of CD16
[2]
  Chlorite % Reduction of factor in vitro, MIG: 88% and 70%
  Chlorite % reduction of factor in vitro, IP10: 95% and 80%
  down regulation of HGF: greater than 50%
  down regulation of IL1Ra: greater than 50%
  down regulation of IP10 (CXCL10): greater than 50%
  down regulation of MIG (CXCL9): greater than 50%
  down regulation of OPN: greater than 50%
  down regulation of sCD163 (CD163): greater than 50%
  production of COVID-19 patient macrophage produced disease factors (IL-1Ra, IP-10, HGF, MIG, sCD163, OPN) as compared to controls: downregulated production
[3]
  production of secreted inflammatory factors (IL-1Ra, CD163, CD14, OPN): inhibits production
[4]; 150uM, FIG. 6 panel A
  production of OPN from ALS patient macrophages (ELISA): inhibit production of OPN
[4]; dose response, FIG. 6 panel B
  SPP1 (osteopontin) gene expression: inhibits SPP1 (osteopontin) gene expression in a dose-dependent manner
[5]
  CCR3 gene down regulated: 3 X
  CXCL9 gene down regulated: 14 X
  SERPINB2 gene upregulated: 4 X
[6]
  CCL16 gene expression: clear down regulation
  CCR2 gene expression: clear down regulation
  CXCL9 gene expression: clear down regulation
  CXCL10 gene expression: clear down regulation
  IL-18 gene expression (inflammasome activation): clear down regulation
  TLR4 gene expression: clear down regulation
